The results in this text go back to ChEMBL document CHEMBL1146232, “Discovery of N-{(1S,2S)-2-(3-cyanophenyl)- 3-[4-(2-[18F]fluoroethoxy)phenyl]-1-methylpropyl}- 2-methyl-2-[(5-methylpyridin-2-yl)oxy]propanamide, a cannabinoid-1 receptor positron emission tomography tracer suitable for clinical use” (J Med Chem, 2007).

Sequence of Cannabinoid receptor 2 (P34972 whole entry): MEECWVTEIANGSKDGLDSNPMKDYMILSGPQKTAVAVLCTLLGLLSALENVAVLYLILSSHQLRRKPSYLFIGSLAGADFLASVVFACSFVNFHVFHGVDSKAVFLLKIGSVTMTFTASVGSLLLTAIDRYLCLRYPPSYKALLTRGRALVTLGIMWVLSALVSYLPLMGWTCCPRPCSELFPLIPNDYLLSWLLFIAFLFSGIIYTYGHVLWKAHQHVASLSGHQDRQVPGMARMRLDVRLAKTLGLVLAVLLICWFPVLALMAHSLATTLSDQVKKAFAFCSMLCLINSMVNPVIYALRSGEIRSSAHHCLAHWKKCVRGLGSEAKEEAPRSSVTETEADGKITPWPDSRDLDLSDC

The first series addresses Cannabinoid receptor 2 (Homo sapiens, UniProt P34972). Kind of series: Agonist activity at human CB2R. Format: functional.
Conditions: not given
`Cc1ccc(OC(C)(C)C(=O)N[C@@H](C)[C@@H](Cc2ccc(OCCF)cc2)c2cccc(C#N)c2)nc1` displayed a 50% inhibitory concentration (IC50) of 44 nM.

Test system in another series: not listed separately
Kind of series: Half life in Sprague-Dawley rat at 1 mg/kg, iv. Format: ADME, organism-based. Set-up: dose 1 mg/kg, route intravenous. Particulars: in vivo.
`Cc1ccc(OC(C)(C)C(=O)N[C@@H](C)[C@@H](Cc2ccc(OCCF)cc2)c2cccc(C#N)c2)nc1` showed a half-life of 84 min.

Test system in the next series: not listed separately
Kind of series: Ratio of drug level in brain to plasma in Sprague-Dawley rat at 1 mg/kg, iv after 15 mins. It is filed as ADME, organism-based. Set-up: dose 1 mg/kg, route intravenous. Particulars: brain and plasma.
For `Cc1ccc(OC(C)(C)C(=O)N[C@@H](C)[C@@H](Cc2ccc(OCCF)cc2)c2cccc(C#N)c2)nc1`, the concentration ratio (Kp) at 0.25 h came out at 0.5.

In the next series the target is Cannabinoid receptor 1 (Homo sapiens, UniProt P21554). Kind of series: Displacement of [3H]CP-55940 from human recombinant CB1R expressed in CHO cells.
Sequence of Cannabinoid receptor 1 (P21554 whole entry): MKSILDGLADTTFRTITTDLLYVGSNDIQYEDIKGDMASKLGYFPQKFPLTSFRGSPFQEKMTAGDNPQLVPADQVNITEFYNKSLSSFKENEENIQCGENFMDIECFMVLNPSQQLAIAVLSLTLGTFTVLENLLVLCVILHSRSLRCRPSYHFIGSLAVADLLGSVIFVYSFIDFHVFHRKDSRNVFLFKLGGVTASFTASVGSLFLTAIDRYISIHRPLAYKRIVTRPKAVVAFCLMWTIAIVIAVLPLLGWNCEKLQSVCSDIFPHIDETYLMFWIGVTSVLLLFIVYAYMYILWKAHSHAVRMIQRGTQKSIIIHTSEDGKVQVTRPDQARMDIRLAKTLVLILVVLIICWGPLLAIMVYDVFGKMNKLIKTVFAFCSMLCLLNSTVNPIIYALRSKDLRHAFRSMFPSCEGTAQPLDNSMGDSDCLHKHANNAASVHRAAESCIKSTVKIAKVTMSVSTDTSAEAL
Conditions: not given
Format: cell-based. In general terms: Displacement assays read how much labelled ligand stays bound in the presence of the test substance.
Regarding `C[C@H](NC(=O)C(C)(C)Oc1ccc(C(F)(F)F)cn1)[C@@H](Cc1ccc(OCCF)cc1)c1cccc(C#N)c1`, the 50% inhibitory concentration (IC50) is 0.9 nM.

Take `C[C@H](NC(=O)C(C)(C)Oc1ccc(Cl)cn1)[C@@H](Cc1ccc(OCCF)cc1)c1cccc(C#N)c1`: the IC50 turned out to be 0.8 nM.

On to `Cc1ccnc(OC(C)(C)C(=O)N[C@@H](C)[C@@H](Cc2ccc(OCCF)cc2)c2cccc(C#N)c2)c1`, for which the 50% inhibitory concentration (IC50) is 0.47 nM.

On to `Cc1ccc(OC(C)(C)C(=O)N[C@@H](C)[C@@H](Cc2ccc(OCCF)cc2)c2cccc(C#N)c2)nc1`, for which the half-inhibitory concentration (IC50) is 0.7 nM.

In the case of `C[C@H](NC(=O)C(C)(C)Oc1cc(C(F)(F)F)ncn1)[C@@H](Cc1ccc(OCCF)cc1)c1cccc(C#N)c1`, the IC50 worked out at 1.8 nM.

On to `Cc1ccc(OC(C)(C)C(=O)N[C@@H](C)[C@@H](Cc2ccc(OCC[18F])cc2)c2cccc(C#N)c2)nc1`, for which the IC50 worked out at 0.73 nM.

As for `COc1ccc(C[C@@H](c2cc(F)cc(C#N)c2)[C@H](C)NC(=O)C(C)(C)Oc2ccc(C(F)(F)F)cn2)cc1`, the IC50 was found to be 0.9 nM.

As for `C[C@H](NC(=O)C(C)(C)Oc1ccc(C(F)(F)F)cn1)[C@@H](Cc1ccc(OCF)cc1)c1cc(F)cc(C#N)c1`, the IC50 turned out to be 2 nM.

For the compound `C[C@H](NC(=O)C(C)(C)Oc1ccccn1)[C@@H](Cc1ccc(OCCF)cc1)c1cccc(C#N)c1`, the IC50 came to 1.3 nM.

Take `C[C@H](NC(=O)C(C)(C)Oc1ccc(C(F)(F)F)cn1)[C@@H](Cc1ccc(OCCF)cc1)c1cc(F)cc(C#N)c1`: the half-inhibitory concentration (IC50) worked out at 0.9 nM.

In the case of `C[C@H](NC(=O)C(C)(C)Oc1cc(C(F)(F)F)ccn1)[C@@H](Cc1ccc(OCCF)cc1)c1cccc(C#N)c1`, the IC50 was determined as 0.77 nM.

Take `C[C@H](NC(=O)C(C)(C)Oc1ccc(C#N)cn1)[C@@H](Cc1ccc(OCCF)cc1)c1cccc(C#N)c1`: the IC50 was determined as 1.8 nM.

Test system in the next series: not listed separately
Kind of series: Clearance in Sprague-Dawley rat at 1 mg/kg, iv. It is filed as ADME, organism-based. Set-up: dose 1 mg/kg, route intravenous. The note with it: in vivo.
Compound `Cc1ccc(OC(C)(C)C(=O)N[C@@H](C)[C@@H](Cc2ccc(OCCF)cc2)c2cccc(C#N)c2)nc1` came in with a clearance of 81 mL/min/kg.

Test system in another series: not listed separately
Nature of the series: Distribution coefficient, log D at pH 7.3. Format: physicochemical. The note with it: octanol/water.
In turn, `C[C@H](NC(=O)C(C)(C)Oc1ccc(C(F)(F)F)cn1)[C@@H](Cc1ccc(OCCF)cc1)c1cccc(C#N)c1` registered a logD of 4.4.

`C[C@H](NC(=O)C(C)(C)Oc1ccc(Cl)cn1)[C@@H](Cc1ccc(OCCF)cc1)c1cccc(C#N)c1` came in with a logD of 4.2.

`Cc1ccnc(OC(C)(C)C(=O)N[C@@H](C)[C@@H](Cc2ccc(OCCF)cc2)c2cccc(C#N)c2)c1` registered a logD of 4.1.

In turn, `Cc1ccc(OC(C)(C)C(=O)N[C@@H](C)[C@@H](Cc2ccc(OCCF)cc2)c2cccc(C#N)c2)nc1` had a log distribution coefficient (logD) of 4.

Take `C[C@H](NC(=O)C(C)(C)Oc1cc(C(F)(F)F)ncn1)[C@@H](Cc1ccc(OCCF)cc1)c1cccc(C#N)c1`: the logD amounted to 3.9.

`Cc1ccc(OC(C)(C)C(=O)N[C@@H](C)[C@@H](Cc2ccc(OCC[18F])cc2)c2cccc(C#N)c2)nc1`: the log distribution coefficient (logD) turned out to be 4.

Compound `COc1ccc(C[C@@H](c2cc(F)cc(C#N)c2)[C@H](C)NC(=O)C(C)(C)Oc2ccc(C(F)(F)F)cn2)cc1` registered a logD of 4.8.

`C[C@H](NC(=O)C(C)(C)Oc1ccc(C(F)(F)F)cn1)[C@@H](Cc1ccc(OCF)cc1)c1cc(F)cc(C#N)c1`: the log distribution coefficient (logD) was determined as 4.7.

Regarding `C[C@H](NC(=O)C(C)(C)Oc1ccccn1)[C@@H](Cc1ccc(OCCF)cc1)c1cccc(C#N)c1`, the logD turned out to be 3.7.

`C[C@H](NC(=O)C(C)(C)Oc1ccc(C(F)(F)F)cn1)[C@@H](Cc1ccc(OCCF)cc1)c1cc(F)cc(C#N)c1`: the log distribution coefficient (logD) stood at 4.6.

`C[C@H](NC(=O)C(C)(C)Oc1cc(C(F)(F)F)ccn1)[C@@H](Cc1ccc(OCCF)cc1)c1cccc(C#N)c1` displayed a logD of 4.6.

With `C[C@H](NC(=O)C(C)(C)Oc1ccc(C#N)cn1)[C@@H](Cc1ccc(OCCF)cc1)c1cccc(C#N)c1`, the logD worked out at 3.3.

For the compound `C[C@H](NC(=O)C(C)(C)Oc1ccc(C(F)(F)F)cn1)[C@@H](Cc1ccc(Cl)cc1)c1cccc(C#N)c1` [TARANABANT], the logD was determined as 5.2.

As usually defined, the IC50 is the point on the concentration scale where inhibition reaches its midpoint. As a reminder, the half-life is the time in which the quantity being followed falls by half. A word on the Kp: it is tissue or fluid exposure divided by exposure in the circulation. Broadly, the clearance is a measure of how efficiently the substance is removed, as volume per time. The low end stands for a low capacity for elimination, the high end for a high capacity for elimination. What is called logD is lipophilicity at a set pH, counting ionised and neutral species.
